From PubChem BioAssay AID1918943 (Molecular Pharmacology Branch, DTP, NCI, 2023)

System: 855422-203-R-J1-PDC complex spheroid viability
Assay: Anticancer human tumor 855422-203-R-J1-PDC patient-derived bladder carcinoma cell line growth inhibition
Conditions: for IC50: curve of first compound; for viability, T/C: stronger effect = lower value
How it was run: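 Multicellular complex spheroids of tumor cells with human endothelial cells (HUVEC) and mesenchymal stem cells; the LSD1 inhibitor iadademstat was combined with standard-of-care or investigational agents. Top concentration at or near clinical Cmax, half-log dilutions; final DMSO ≤0.25%.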

[1] = second compound 0.1 µM, first compound 0.0316 µM
[2] = second compound 0.1 µM, first compound 0.1 µM
[3] = second compound 0.1 µM, first compound 0.316 µM
[4] = second compound 0.1 µM, first compound 1 µM
[5] = second compound 0.1 µM, first compound 3.16 µM
[6] = second compound 0.1 µM, first compound 10 µM
[7] = second compound 0.316 µM, first compound 0.0316 µM
[8] = second compound 0.316 µM, first compound 0.1 µM
[9] = second compound 0.316 µM, first compound 0.316 µM
[10] = second compound 0.316 µM, first compound 1 µM
[11] = second compound 0.316 µM, first compound 3.16 µM
[12] = second compound 0.316 µM, first compound 10 µM
[13] = second compound 1 µM, first compound 0.0316 µM
[14] = second compound 1 µM, first compound 0.1 µM
[15] = second compound 1 µM, first compound 0.316 µM
[16] = second compound 1 µM, first compound 1 µM
[17] = second compound 1 µM, first compound 3.16 µM
[18] = second compound 1 µM, first compound 10 µM
[19] = second compound 3.16 µM, first compound 0.0316 µM
[20] = second compound 3.16 µM, first compound 0.1 µM
[21] = second compound 3.16 µM, first compound 0.316 µM
[22] = second compound 3.16 µM, first compound 1 µM
[23] = second compound 3.16 µM, first compound 3.16 µM
[24] = second compound 3.16 µM, first compound 10 µM
[25] = second compound 10 µM, first compound 0.0316 µM
[26] = second compound 10 µM, first compound 0.1 µM
[27] = second compound 10 µM, first compound 0.316 µM
[28] = second compound 10 µM, first compound 1 µM
[29] = second compound 10 µM, first compound 3.16 µM
[30] = second compound 10 µM, first compound 10 µM
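Note: drug exposure lasted 7 days starting on day 3 after seeding.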
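Throughout, for viability, T/C: luminescence viability as percent of DMSO vehicle wells = 100%.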

| Compound | IC50 (second compound 0.1 µM) | IC50 (second compound 0.316 µM) | IC50 (second compound 1 µM) | IC50 (second compound 3.16 µM) | IC50 (second compound 10 µM) | viability, T/C [1] | viability, T/C [2] | viability, T/C [3] | viability, T/C [4] | viability, T/C [7] | viability, T/C [8] | viability, T/C [9] | viability, T/C [10] | viability, T/C [13] | viability, T/C [14] | viability, T/C [15] | viability, T/C [16] | viability, T/C [19] | viability, T/C [20] | viability, T/C [21] | further results |
| --- | --- | --- | --- | --- | --- | --- | --- | --- | --- | --- | --- | --- | --- | --- | --- | --- | --- | --- | --- | --- | --- |
| CC(C)c1c(-c2ccccc2)nc2c(C#N)c[nH]n2c1=O + NC1CC1c1ccc(-c2cccc(O)c2)cc1 | > 10 µM | > 10 µM | > 10 µM | > 10 µM | > 10 µM | 96.8% | 109% | 93.8% | 95.7% | 98.2% | 94.7% | 99.7% | 87.4% | 96.5% | 102% | 93.6% | 86.2% | 98.8% | 96% | 94.2% | viability, T/C [5]: 95.5%; viability, T/C [6]: 86.2%; viability, T/C [11]: 88%; viability, T/C [12]: 83.6%; viability, T/C [17]: 90.5%; viability, T/C [18]: 80.4%; viability, T/C [22]: 88.9%; viability, T/C [23]: 86.1%; viability, T/C [24]: 83.7%; viability, T/C [25]: 86.1%; viability, T/C [26]: 86.6%; viability, T/C [27]: 88.7%; viability, T/C [28]: 86.9%; viability, T/C [29]: 81.3%; viability, T/C [30]: 73.9% |
| CC1COCCN1c1cc(-c2ccnn2C)c2ccnc(-c3ccn[nH]3)c2n1 (stereo not given) + NC1CC1c1ccc(-c2cccc(O)c2)cc1 | 0.131 µM | 0.102 µM | 0.0947 µM | 0.106 µM | 0.0775 µM | 100% | 54.5% | 34.8% | 35.5% | 99.7% | 50.2% | 35% | 31% | 89% | 48.3% | 30.8% | 33.9% | 94.7% | 51% | 30.1% | viability, T/C (second compound 0.1 µM, first compound 0.00316 µM): 111%; viability, T/C (second compound 0.1 µM, first compound 0.01 µM): 101%; viability, T/C (second compound 0.316 µM, first compound 0.00316 µM): 102%; viability, T/C (second compound 0.316 µM, first compound 0.01 µM): 93%; viability, T/C (second compound 1 µM, first compound 0.00316 µM): 94.7%; viability, T/C (second compound 1 µM, first compound 0.01 µM): 97.8%; viability, T/C (second compound 3.16 µM, first compound 0.00316 µM): 91.8%; viability, T/C (second compound 3.16 µM, first compound 0.01 µM): 99.5%; viability, T/C [22]: 29.5%; viability, T/C (second compound 10 µM, first compound 0.00316 µM): 90.7%; viability, T/C (second compound 10 µM, first compound 0.01 µM): 90.5%; viability, T/C [25]: 80.9%; viability, T/C [26]: 41.2%; viability, T/C [27]: 27.1%; viability, T/C [28]: 26.1% |
| COc1ccc([C@@H](O)c2cc(-c3ncnc4cc(N5CCOCC5)ccc34)c(F)cc2Cl)nn1 + NC1CC1c1ccc(-c2cccc(O)c2)cc1 | 5.2 µM | 4.86 µM | 4.32 µM | 3.56 µM | 2.74 µM | 86.7% | 90.9% | 84.9% | 77.7% | 94.5% | 88.2% | 90.4% | 80.2% | 84.4% | 88.8% | 79.8% | 75.2% | 88.6% | 93.9% | 77.3% | viability, T/C [5]: 62.1%; viability, T/C [6]: 34.4%; viability, T/C [11]: 57.9%; viability, T/C [12]: 36.7%; viability, T/C [17]: 54%; viability, T/C [18]: 38.2%; viability, T/C [22]: 69.8%; viability, T/C [23]: 51.8%; viability, T/C [24]: 35.1%; viability, T/C [25]: 83.3%; viability, T/C [26]: 77.6%; viability, T/C [27]: 75.2%; viability, T/C [28]: 71.3%; viability, T/C [29]: 46.6%; viability, T/C [30]: 29.9% |
